In patent US8603493B2, “Carbosilane dendrimers, preparation method thereof and use of same” (Dendrico, S.L., priority 2005, dated 2013):
Entries after “also recorded” stand apart in the source; their conditions may differ.

How the values were obtained:
ODN = test: Complex formation between CBS and ODN (agarose gel electrophoresis); type: binding; details: 3% agarose gel, RPMI, excess positive charge (+/−) 2/1 and higher
Text: The oligonucleotidic sequences used were antisense sequences (complementary) directed against HIV RNA. The length varied from 15 to 28 bases, being of phosphorothioate nature. The specific ODN used and their sequences are shown below in Table 1.
Several of the ODN were used fluorescent at the 5′ end. This is indicated by adding the letter F to its notation. Thus, “GF” makes reference to the fluorescent anti-gag ODN at end 5′, whilst “RF” makes reference to the anti-Rev ODN fluorescent at end 5′.
Different agarose concentrations were used to show the migration of the ODN and the dendriplexes, bearing in mind the small size of the ODN used. Finally, a 3% agarose concentration in TAE 1× was chosen as the best. The migration of non-fluorescent ODNs was compared with fluorescent ones, both migrating at the same height but the latter increasing the signal perceived considerably. Using them, it thus avoided the isotopic labelling of the ODN. A double well was manufactured to prepare these gels, to permit load volumes of 60 μl, of which 50 μl was mixture volume of the samples in RPMI and 10 μl load buffer with glycerol. As size marker, a ladder of 100 base pairs was used (Gibco BRL®).
For the complex formations in all the tests performed, both on gels and on cells the ratio between the number of positive and negative charges in said complex was taken. As published by different authors in studies with PAMAM dendrimers, it is necessary that the complex formed has an excess positive charge to facilitate its binding to the cell membrane glycoproteins, negatively charged, thus starting the endocytosis process. Likewise, an excess of positive charge is added to ensure the formation of the dendrimer-DNA complex. Therefore, the complexes between the CBS dendrimers and the different nucleic acids were formed in excess number of positive charges (provided by the CBS) compared with negative charges (provided by the ODN). Nevertheless, different charge ratios were tested, making the calculations based in the number of dendrimer charges (fixed) and the number of negative charges of the ODN (also fixed). The 2/1 ratio of positive/negative charges was fixed as sufficient in all dendrimers to form the complexes with a total positive charge, although in some experiments a balance was provided of an equal number of negative charges as positive charges or excess negative charges.
In all the tests, a complex formation volume of 60 μl was used, using phenol red without RPMI serum as support medium.
Tests of complex formation were used with the dendrimers of the invention IM8, ClNH4, NN, Phe and IM16.
The synthesis process of the CBS used in this work begins from an initial nucleus of common structure, which is ended functionalizing in the periphery by the use of different functional groups, which are those which provide the positive charge to the dendrimer and determine the differences between themselves, the dendrimeric nucleus being of apolar nature. Since some of the bonds of the functional groups used to the dendrimeric nucleus could be unstable in aqueous solution, tests were performed to determine if the DNA retention in agarose gels and, therefore, the complex formation between the CBS and the DNA could be due to the total dendrimer structure being conserved or in contrast, the terminal functional groups came away from the moiety of the dendrimeric core which are responsible for the DNA retention. For this, gels were used in which complexes were formed between the ODNs and the integral CBS and those formed supposedly between the ODNs and the terminal functional groups with which the carbosilane skeleton had functionalized, in this case quaternized dimethylethanolamine. As has previously been commented, those positively charged molecules, which are bound to the dendrimer as terminal functional groups, are those which give the dendrimer its charge. As control, the mixtures of ODN-dendrimers, ODN-monomers and ODN alone were compared. […]

ODN PPT = test: Stability of the dendriplexes in aqueous solution in accordance with time; type: physicochemical; details: after 24 hours
Protocol: Different samples of dendriplexes were prepared in aqueous solution formed between the ODN PPT and dendrimers IM8, IM16 and NN at a 2/1 charge ratio according to Example 31 and electrophoresis was performed after different times since the preparation of the samples, specifically 0 hours, 6 hours and 24 hours. During those times, the dendriplexes were maintained in conditions which imitate the physiological conditions: 37° C., in 5% CO2 atmosphere. The results are shown in FIG. 5, wherein the gel of FIG. 5a corresponds to the sample of 0 hours, that of FIG. 5b to the samples after 6 hours and that of FIG. 5c to the samples after 24 hours. In the three cases, a, b and c, the samples appear in the lanes following this order: […]

SMILES	complex formation with ODN (retention of DNA migration in gel) (ODN)	ODN released from dendrimer (ODN PPT)
C[Si](C)(CCCN)CCC[Si](C)(CCC[Si](C)(C)CCCN)CCC[Si](CCC[Si](C)(CCC[Si](C)(C)CCCN)CCC[Si](C)(C)CCCN)(CCC[Si](C)(CCC[Si](C)(C)CCCN)CCC[Si](C)(C)CCCN)CCC[Si](C)(CCC[Si](C)(C)CCCN)CCC[Si](C)(C)CCCN.Cl.Cl.Cl.Cl.Cl.Cl.Cl.Cl [ClNH4, 2G-[Si(CH2)3NH3^+Cl^−]8]	capable of retaining the DNA also with all the charge ratios evaluated	
C[N+](C)(C)CCO[Si](C)(C)CCC[Si](C)(CCC[Si](CCC[Si](C)(CCC[Si](C)(C)OCC[N+](C)(C)C)CCC[Si](C)(C)OCC[N+](C)(C)C)(CCC[Si](C)(CCC[Si](C)(C)OCC[N+](C)(C)C)CCC[Si](C)(C)OCC[N+](C)(C)C)CCC[Si](C)(CCC[Si](C)(C)OCC[N+](C)(C)C)CCC[Si](C)(C)OCC[N+](C)(C)C)CCC[Si](C)(C)OCC[N+](C)(C)C.[I-].[I-].[I-].[I-].[I-].[I-].[I-].[I-] [IM8, 2G-[Si(OCH2CH2NMe3^+I^−)]8]	capable of retaining the DNA; also recorded: capable of retaining the migration of all the ODN	~100%
C[N+](C)(C)CCO[Si](C)(CCC[Si](C)(CCC[Si](CCC[Si](C)(CCC[Si](C)(OCC[N+](C)(C)C)OCC[N+](C)(C)C)CCC[Si](C)(OCC[N+](C)(C)C)OCC[N+](C)(C)C)(CCC[Si](C)(CCC[Si](C)(OCC[N+](C)(C)C)OCC[N+](C)(C)C)CCC[Si](C)(OCC[N+](C)(C)C)OCC[N+](C)(C)C)CCC[Si](C)(CCC[Si](C)(OCC[N+](C)(C)C)OCC[N+](C)(C)C)CCC[Si](C)(OCC[N+](C)(C)C)OCC[N+](C)(C)C)CCC[Si](C)(OCC[N+](C)(C)C)OCC[N+](C)(C)C)OCC[N+](C)(C)C.[I-].[I-].[I-].[I-].[I-].[I-].[I-].[I-].[I-].[I-].[I-].[I-].[I-].[I-].[I-].[I-] [IM16, 2G-[Si(OCH2CH2NMe3^+I^−)2]8]	capable of retaining the DNA	~100%
CN(CCO[Si](C)(C)CCC[Si](C)(CCC[Si](CCC[Si](C)(CCC[Si](C)(C)OCCN(C)CC[N+](C)(C)C)CCC[Si](C)(C)OCCN(C)CC[N+](C)(C)C)(CCC[Si](C)(CCC[Si](C)(C)OCCN(C)CC[N+](C)(C)C)CCC[Si](C)(C)OCCN(C)CC[N+](C)(C)C)CCC[Si](C)(CCC[Si](C)(C)OCCN(C)CC[N+](C)(C)C)CCC[Si](C)(C)OCCN(C)CC[N+](C)(C)C)CCC[Si](C)(C)OCCN(C)CC[N+](C)(C)C)CC[N+](C)(C)C.[I-].[I-].[I-].[I-].[I-].[I-].[I-].[I-] [NN, 2G-[Si(O(CH2)2N(Me)(CH2)2NMe3^+I^−)]8]	capable of forming complexes with the ODN	~100%
C[N+](C)(C)CCOc1cc(CO[Si](C)(C)CCC[Si](C)(CCC[Si](CCC[Si](C)(CCC[Si](C)(C)OCc2cc(OCC[N+](C)(C)C)cc(OCC[N+](C)(C)C)c2)CCC[Si](C)(C)OCc2cc(OCC[N+](C)(C)C)cc(OCC[N+](C)(C)C)c2)(CCC[Si](C)(CCC[Si](C)(C)OCc2cc(OCC[N+](C)(C)C)cc(OCC[N+](C)(C)C)c2)CCC[Si](C)(C)OCc2cc(OCC[N+](C)(C)C)cc(OCC[N+](C)(C)C)c2)CCC[Si](C)(CCC[Si](C)(C)OCc2cc(OCC[N+](C)(C)C)cc(OCC[N+](C)(C)C)c2)CCC[Si](C)(C)OCc2cc(OCC[N+](C)(C)C)cc(OCC[N+](C)(C)C)c2)CCC[Si](C)(C)OCc2cc(OCC[N+](C)(C)C)cc(OCC[N+](C)(C)C)c2)cc(OCC[N+](C)(C)C)c1.[I-].[I-].[I-].[I-].[I-].[I-].[I-].[I-].[I-].[I-].[I-].[I-].[I-].[I-].[I-].[I-] [Phe, 2G-[Si(OCH2—(C6H3)-3,5-(OCH2CH2NMe3^+I^−)2)]8]	capable of forming complexes with the ODN	
